The target in this experiment is cAMP and cAMP-inhibited cGMP 3',5'-cyclic phosphodiesterase 10A (Homo sapiens, UniProt Q9Y233). Put plainly: Inhibition Assay: The human PDE10A full length assay was performed in 96-well micro titer plates. The reaction mixture of 50 μl contained 20 mM HEPES pH=7.5/10 mM MgCl2/0.05 mg/ml BSA (Sigma cat. #A-7906), 50 nM cGMP (Sigma, cat. #G6129) and 50 nM [3H]-cGMP (GE Healthcare, cat. #TRK392 S.A. 13.2 Ci/mmol), 3.75 ng/well PDE10A enzyme (Enzo Life Science, Lausen, Switzerland cat #SE-534) with or without a specific test compound. A range of concentrations of the potential inhibitor was used to generate data for calculating the concentration of inhibitor resulting in 50% of the effect (e.g. IC50, the concentration of the competitor inhibiting PDE10A activity by 50%). Non-specific activity was tested without the enzyme. The reaction was initiated by the addition of the substrate solution (cGMP and [3H]-cGMP) and allowed to progress for 20 minutes at room temperature. The reaction was terminated by adding 25 μl of YSi-SPA scintillation beads (GE Healthcare, cat. #RPNQ0150) in 18 mM zinc sulphate solution (stop reagent). After 1 h under shaking, the plate was centrifuged one minute at 170 g to allow beads to settle. Afterwards, radioactive counts were measured on a Perkin Elmer TopCount Scintillation plate reader.
Sequence of cAMP and cAMP-inhibited cGMP 3',5'-cyclic phosphodiesterase 10A (Q9Y233 whole entry): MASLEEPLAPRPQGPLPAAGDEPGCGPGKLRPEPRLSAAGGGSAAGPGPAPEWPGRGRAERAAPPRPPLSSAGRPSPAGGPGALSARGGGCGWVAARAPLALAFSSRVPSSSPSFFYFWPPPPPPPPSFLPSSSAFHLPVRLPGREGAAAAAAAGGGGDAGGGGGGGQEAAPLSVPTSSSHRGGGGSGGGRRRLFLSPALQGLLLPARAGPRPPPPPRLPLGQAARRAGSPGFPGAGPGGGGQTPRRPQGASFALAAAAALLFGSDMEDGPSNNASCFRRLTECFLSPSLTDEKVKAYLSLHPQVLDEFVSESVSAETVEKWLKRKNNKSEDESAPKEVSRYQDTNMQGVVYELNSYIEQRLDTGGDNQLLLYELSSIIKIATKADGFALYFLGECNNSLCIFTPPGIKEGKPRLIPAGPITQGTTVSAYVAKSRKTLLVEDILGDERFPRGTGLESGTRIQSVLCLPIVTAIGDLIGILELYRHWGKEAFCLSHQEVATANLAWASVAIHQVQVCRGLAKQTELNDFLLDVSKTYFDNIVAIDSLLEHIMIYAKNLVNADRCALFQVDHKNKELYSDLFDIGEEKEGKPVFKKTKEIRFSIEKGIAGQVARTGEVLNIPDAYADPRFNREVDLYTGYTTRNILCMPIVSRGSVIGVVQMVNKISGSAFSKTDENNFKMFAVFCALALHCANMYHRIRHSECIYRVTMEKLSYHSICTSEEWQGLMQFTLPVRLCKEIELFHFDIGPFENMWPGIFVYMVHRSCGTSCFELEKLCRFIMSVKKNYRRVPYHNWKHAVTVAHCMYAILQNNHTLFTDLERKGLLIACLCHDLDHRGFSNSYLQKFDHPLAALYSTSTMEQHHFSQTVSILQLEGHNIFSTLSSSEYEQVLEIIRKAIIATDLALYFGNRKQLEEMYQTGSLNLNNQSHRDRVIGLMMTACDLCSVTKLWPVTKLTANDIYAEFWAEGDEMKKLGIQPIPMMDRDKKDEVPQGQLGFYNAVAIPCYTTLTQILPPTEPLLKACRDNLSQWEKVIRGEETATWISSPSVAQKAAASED

With `Cc1nc2cc(C(F)(F)F)c(CCc3nc(N4CCCC4)nn3C)nn2c1C`, the IC50 was 165 nM.
For `Cc1cn2nc(C)c(C)c2nc1C#Cc1nc(N2CCCC2)nn1C`, the IC50 is 6.6 nM.

These data come from ChEMBL document CHEMBL5726115, “Triazolo compounds” (2017).
